Reference: patent publication US20020107269A1, “Benzoxazole LPAAT-B inhibitors and uses thereof” (CELL THERAPEUTICS, INC., priority 2000, published 2002)

Assays:
[1] = test system: human breast tumor MCF-7 cells; assay: Proliferation of MCF-7 cells by CyQUANT analysis; assay type: cell-based; details: MCF-7 cells in microplates, FIG. 5E
Procedure: To determine whether administration of LPAAT-β inhibitor would have any effect on cell proliferation in tissue culture, proliferation of human breast tumor MCF-7 cells in microplates were measured by CyQUANT analysis using a green-fluorescent nucleic acid stain optimized to produce a linear detection range from 50 to 50,000 cells in 200 μl volume (Molecular Probes, Eugene, Oreg.) in the presence of various concentrations of a LPAAT-β inhibitor.

[2] = biological target: T1, LPAAT-β (Homo sapiens, UniProt O15120); assay: LPAAT-β colorimetric assay (DTNB detection of released CoA); assay type: biochemical; details: Sf9 cell membrane overexpressing LPAAT-β; 18:1-CoA and sn-1-18:1 lysoPA; absorbance at 405 nm; read-out: LPAATβ Colorimetric Assay IC50
T1 construct: the full-length human LPAAT-β cDNA was amplified by PCR; poly-histidine tag (N); made in house; host or cells: Sf9 insect cells (baculovirus, pFastBac HTc); membrane fraction used
T1 sequence (O15120 24-278): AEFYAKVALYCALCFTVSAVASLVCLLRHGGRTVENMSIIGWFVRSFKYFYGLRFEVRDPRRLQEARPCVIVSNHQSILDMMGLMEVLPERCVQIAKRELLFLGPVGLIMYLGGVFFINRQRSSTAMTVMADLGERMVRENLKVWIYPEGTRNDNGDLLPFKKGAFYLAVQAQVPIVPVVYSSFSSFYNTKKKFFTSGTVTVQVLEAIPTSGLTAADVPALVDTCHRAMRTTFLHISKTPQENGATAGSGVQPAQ
Description: For the construction of Baculovirus expression vectors, the full-length human LPAAT-β cDNA was amplified by PCR from the DNA template pCE9.LPAAT-β (West et al., DNA Cell Biol. 16:691-701 (1997)) using the primers 5′-TGATATCCGAAGAAGATCTTATGGAGCTGTGGCCGTGTC-3′ (olpb1F) and 5′-CAGGCTCTAG ACTACTGGGC CGGCTGCAC-3′ (olpb1R). The ˜870 bp fragment generated was reamplified by PCR using the primers 5′ CCTACGTCG ACATGGAACAAAAATTGATATCCGAAGAAGATC-3′ (olpb2F) and 5′-CAGGCTCTAG ACTACTGGGC CGGCTGCAC-3′ (olpb1R). The ˜890 bp fragment generated was then cleaved with Sal I and Xba I for insertion into pFastBac™ HTc vector (Life Technologies, Gaithersberg, Md.) between the Sal I and Xba I sites for the generation of the plasmid pFB.LPAAT-β. This plasmid was then transformed into E. coli DH10Bac™ (Life Technologies, Gaithersberg, Md.) for the generation of recombinant Bacmid DNA for transfection into HighFive (Invitrogen, San Diego, Calif.) or SF9 insect cells for the production of recombinant Baculovirus stocks using the protocol described in the Bac-to-Bac® Baculovirus Expression System (Life Technologies, Gaithersberg, Md.), a eukaryotic expression system for generating recombinant baculovirus through site-specific transposition in E. coli. Viral stocks harvested from the transfected cells can then be used to infect fresh insect cells for the subsequent expression of LPAAT-β fusion protein with a poly-histidine tag and a myc-epitope near its N-terminus. The membrane fraction from these Sf9 cells would be the source of LPAAT enzyme.
For the preparation of membranes From Sf9 Cells, all steps are performed on ice or at 4° C. Sf9 cell pellets ([…]) were thawed and resuspended in 1-2 ml of buffer A (20 mM Hepes, pH 7.5, 1 mM DTT, 1 mM EDTA, 20% w/v glycerol, 1 mM Benzamidine, 1 μg/ml soybean trypsin inhibitor (SBTI), 1 μg/ml pepstatin A) w/o DTT but with 1 mM Pefabloc. The cells were lysed by sonication using a Branson Sonifier at output=2, duty cycle=2, 10 pulses each at 10 s. with the tip of small sonicator probe submerged but not touching the walls. DTT was then added to 1 mM from a 1M stock. The samples were centrifuged at 1500 rpm for 5 min. The low speed supernatant was saved and centrifuged (TLA 100.3 rotor, polycarbonate tubes, 2 ml/tube or 1.5 ml/tube minimum) at 100000×g for 1 hr. The high speed pellet was resuspend in Buffer A with a probe sonicator (10 pulses @ output #2 and duty cycle 20%) as a source of LPAAT enzyme.
LPAAT-β catalyzes the transfer of an acyl group from a donor such as acyl-CoA to LPA. The transfer of the acyl group from acyl-CoA to LPA leads to the release of free CoA, which can be reacted with the thiol reagent, 5,5′-dithiobis(2-nitrobenzoic acid) (DTNB). The reaction between DTNB and the free sulfhydryl group from CoA generates a yellow-colored product, 3-carboxylato-4-nitrothiophenolate (CNP), that absorbs at 413 nm. LPAAT-β derived from Sf9 cell membrane overexpressing LPAAT-β were resuspended in HEPES saline buffer (20 mM HEPES pH 7.5, 150 mM NaCl), 1 mg/ml BSA and 72 μl aliquots were distributed into 96-well microtiter plates. 8 μl of compound of interest at 200 μM dissolved in 100% DMSO was added into each well. 20 μl of 1 mM 18:1-CoA and 1 mM sn-1-18:1 lysoPA was then added to each well to initiate the reaction and allowed to run at room temperature for 25 min. 100 μl of 1 mM DTNB in 100% ethanol was then added to each well to quench the reaction and for color development. The absorbance at 405 nm, measured using a spectrophotometer plate reader, is proportional to the activity of LPAAT-β in the sample. This calorimetric assay was used for the high throughput screening of LPAAT inhibitors. […] Compounds that gave a reading of less than 0.06 arbitrary units (indicated by arrow on right margin) were selected for further study.

| IC50 [2] | Structure (SMILES) | concentration effective in blocking the proliferation of MCF-7 cells [1] |
| --- | --- | --- |
|  | CCC(=O)Nc1ccc(Cl)c(-c2nc3ccc(C)cc3o2)c1 [N-[4-Chloro-3-(6-methyl-benzooxazol-2-yl)-phenyl]-propionamide] | ≥ 20 µM |
| 4 µM | CNC(=O)Nc1ccc(Cl)c(-c2nc3cc(C)ccc3o2)c1 [CT-32021, 1-(4-Chloro-3-(5-methyl-benzooxazol-2-yl)-phenyl)-3-methyl-urea] |  |
